Earlier results in patent publication US5962660A, “Sialyl Lewis X mimetics incorporating fucopeptides” (The Scripps Research Institute, priority 1997, dated 1999).

How the values were obtained:
[1] = for lung injury / tissue accumulation of neutrophils: intravenous infusion of up to 200 μg, rats given intravenous cobra venom
[2] = because of glycosidase reactions

| Substance | effective intravenous concentration ([1]; calculated from the 200 μg used) | lung injury [1] | tissue accumulation of neutrophils [1] | IC50 ([1]; rats, read-out: IC50 value in vivo for protecting against lung injury) | stability in the blood stream [2] | affinity for E-selectin in vitro (E-selectin) |
| --- | --- | --- | --- | --- | --- | --- |
| NeuAcα2→3Galβ1→4(Fucα1→3)GlcNAc [SLe^x] | less than 1 μM | dramatically reduced | diminished | ~1000 nM | unstable | relatively weak |
| NeuAcα2→3Galβ1→4(Fucα1→3)GlcNAcβ1,3Galβ- [pentamer] |  | dramatically reduced | diminished |  |  |  |
